Data set [1] concerns Mus musculus. Briefly: Antinociceptive activity in mouse assessed as prolongation time to jump at 3 mg/kg, iv by hot plate test. It counts as functional, organism-based. The arrangement: dose 3 mg/kg. A general note: In hot-plate and tail-flick tests a longer latency is read as antinociception.
Data set [2] deals with Mu-type opioid receptor (Cavia porcellus, UniProt P97266). Briefly: Agonist activity at mu opioid receptor in guinea pig ileum. It counts as tissue-based.
The target in data set [3] is Mu-type opioid receptor (Rattus norvegicus, UniProt P33535). Briefly: Displacement of [3H]DAMGO from Wistar rat brain mu opioid receptor by liquid scintillation counting analysis. (Displacement assays read how much labelled ligand stays bound in the presence of the test substance.)
Sequence of Mu-type opioid receptor (Rattus norvegicus, UniProt P33535) (P33535 whole entry): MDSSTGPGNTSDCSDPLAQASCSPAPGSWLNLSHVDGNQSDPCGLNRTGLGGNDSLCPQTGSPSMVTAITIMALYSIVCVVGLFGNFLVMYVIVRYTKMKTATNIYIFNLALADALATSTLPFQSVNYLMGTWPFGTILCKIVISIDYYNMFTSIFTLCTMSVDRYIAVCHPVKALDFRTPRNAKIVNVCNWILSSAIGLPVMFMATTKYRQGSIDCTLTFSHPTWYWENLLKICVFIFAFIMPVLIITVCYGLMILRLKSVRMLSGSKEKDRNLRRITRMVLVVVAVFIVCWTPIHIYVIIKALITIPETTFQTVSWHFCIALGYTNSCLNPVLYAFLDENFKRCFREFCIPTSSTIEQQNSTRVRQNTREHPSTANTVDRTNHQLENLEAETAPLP
Data set [4] deals with Plasma. Briefly: Drug metabolism in mouse plasma assessed as glucuronic metabolite formation at 3 mg/kg, iv after 10 mins by mass spectrometric analysis. The conditions noted are these: in vivo. The format is ADME, organism-based. The arrangement: dose 3 mg/kg, route intravenous.
For data set [5], the system named is Plasma. Briefly: Drug metabolism in mouse plasma assessed as degycosylated metabolite formation at 3 mg/kg, iv after 10 mins by mass spectrometric analysis. To be noted: in vivo. The arrangement: dose 3 mg/kg, route intravenous. The format is ADME, organism-based.
For data set [6], the system named is Mus musculus. Briefly: Antinociceptive activity in mouse assessed as prolongation time to jump at 3 mg/kg, iv by hot plate test in presence of opioid receptor antagonist NALME. The arrangement: dose 3 mg/kg. The format is functional, organism-based.

Results on 3 compounds are retold here after ChEMBL document CHEMBL3091405, “Novel glycosylated endomorphin-2 analog produces potent centrally-mediated antinociception in mice after peripheral administration” (Bioorg Med Chem Lett, 2013).

The structures appear in SMILES notation. Activity calls are given as the source filed them. No cut-off for these calls is given here. Residues, ends and D or L forms follow the SMILES beside them. *: point of attachment. X1 = CC(=O)OC[C@H]1O[C@@H](*)[C@H](OC(C)=O)[C@@H](OC(C)=O)[C@@H]1OC(C)=O; βGlc = OC[C@H]1O[C@@H](*)[C@H](O)[C@@H](O)[C@@H]1O

As a reminder, the IC50 is the concentration that inhibits the measured activity by half. A high value points to weaker potency.

Sequence of Mu-type opioid receptor (Cavia porcellus, UniProt P97266) (P97266 whole entry): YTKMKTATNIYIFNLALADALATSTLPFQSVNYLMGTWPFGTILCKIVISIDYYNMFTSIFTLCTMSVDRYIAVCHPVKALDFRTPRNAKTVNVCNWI

`NC(=O)[C@H](Cc1ccccc1)NC(=O)[C@H](Cc1ccccc1)NC(=O)[C@@H]1CCCN1C(=O)[C@@H](N)Cc1ccc(O)cc1`: in the data set with Mus musculus [1], the result was inactive.

Take `CC(=O)OC[C@H]1O[C@@H](Oc2ccc(C[C@H](NC(=O)[C@@H]3CCCN3C(=O)[C@@H](N)Cc3ccc(O)cc3)C(=O)N[C@@H](Cc3ccccc3)C(N)=O)cc2)[C@H](OC(C)=O)[C@@H](OC(C)=O)[C@@H]1OC(C)=O` (H-YPY(X1)F-NH2): the concentration for half-maximal inhibition (IC50) on Mu-type opioid receptor [2] and at Mu-type opioid receptor [3] was greater than 1000 nM in each case.

Turning to `NC(=O)[C@H](Cc1ccccc1)NC(=O)[C@H](Cc1ccc(O[C@@H]2O[C@H](CO)[C@@H](O)[C@H](O)[C@H]2O)cc1)NC(=O)[C@@H]1CCCN1C(=O)[C@@H](N)Cc1ccc(O)cc1` (H-YPY(βGlc)F-NH2), the Drug metabolism entry in the data set with Plasma [4] and in the data set with Plasma [5] was “Active” in each case. The outcome in the data set on Mus musculus [1] and with Mus musculus [6] was Active. Also, the concentration for half-maximal inhibition (IC50) on Mu-type opioid receptor [2] turned out to be 16.1 nM; on Mu-type opioid receptor [3], 73.2 nM.
